{"source": "the NIST ThermoML archive (doi:10.1021/acs.jced.5b01075)", "experiment": "xn = mol fraction of the nth substance listed", "details": "for viscosity: 100 kPa, Liquid, Concentric cylinders viscometry; for surface tension liquid-gas: 294.2 K, Pendant drop shape", "note": "Numbers after ± are expanded uncertainties."}
{"smiles": "C1CC[C@H]2CCCC[C@@H]2C1", "note": "[trans-decahydronaphthalene] + c1ccc2c(c1)CCCC2", "values": [{"measurement": "viscosity", "setting": "293.15 K, x2 = 0.1044", "value": "2.07 ± 0.02", "unit": "mPa·s"}, {"measurement": "viscosity", "setting": "293.15 K, x2 = 0.2075", "value": "2.03 ± 0.02", "unit": "mPa·s"}, {"measurement": "viscosity", "setting": "293.15 K, x2 = 0.3094", "value": "2.02 ± 0.02", "unit": "mPa·s"}, {"measurement": "viscosity", "setting": "293.15 K, x2 = 0.4109", "value": "2 ± 0.02", "unit": "mPa·s"}, {"measurement": "viscosity", "setting": "293.15 K, x2 = 0.5112", "value": "2.02 ± 0.02", "unit": "mPa·s"}, {"measurement": "viscosity", "setting": "293.15 K, x2 = 0.6106", "value": "2.04 ± 0.02", "unit": "mPa·s"}, {"measurement": "viscosity", "setting": "293.15 K, x2 = 0.7093", "value": "2.07 ± 0.02", "unit": "mPa·s"}, {"measurement": "viscosity", "setting": "293.15 K, x2 = 0.807", "value": "2.11 ± 0.03", "unit": "mPa·s"}, {"measurement": "viscosity", "setting": "293.15 K, x2 = 0.9039", "value": "2.17 ± 0.03", "unit": "mPa·s"}, {"measurement": "surface tension liquid-gas", "setting": "x2 = 0.1044", "value": "30.5 ± 0.4", "unit": "mN/m"}, {"measurement": "surface tension liquid-gas", "setting": "x2 = 0.2075", "value": "31 ± 0.4", "unit": "mN/m"}, {"measurement": "surface tension liquid-gas", "setting": "x2 = 0.3094", "value": "31.4 ± 0.4", "unit": "mN/m"}, {"measurement": "surface tension liquid-gas", "setting": "x2 = 0.4109", "value": "32.1 ± 0.4", "unit": "mN/m"}, {"measurement": "surface tension liquid-gas", "setting": "x2 = 0.5112", "value": "32.3 ± 0.4", "unit": "mN/m"}, {"measurement": "surface tension liquid-gas", "setting": "x2 = 0.6106", "value": "32.9 ± 0.4", "unit": "mN/m"}, {"measurement": "surface tension liquid-gas", "setting": "x2 = 0.7093", "value": "33.6 ± 0.4", "unit": "mN/m"}, {"measurement": "surface tension liquid-gas", "setting": "x2 = 0.807", "value": "34.1 ± 0.6", "unit": "mN/m"}, {"measurement": "surface tension liquid-gas", "setting": "x2 = 0.9039", "value": "35 ± 0.4", "unit": "mN/m"}, {"measurement": "viscosity", "setting": "303.15 K, x2 = 0.1044", "value": "1.74 ± 0.02", "unit": "mPa·s"}, {"measurement": "viscosity", "setting": "303.15 K, x2 = 0.2075", "value": "1.71 ± 0.02", "unit": "mPa·s"}, {"measurement": "viscosity", "setting": "303.15 K, x2 = 0.3094", "value": "1.7 ± 0.02", "unit": "mPa·s"}, {"measurement": "viscosity", "setting": "303.15 K, x2 = 0.4109", "value": "1.68 ± 0.02", "unit": "mPa·s"}, {"measurement": "viscosity", "setting": "303.15 K, x2 = 0.5112", "value": "1.69 ± 0.02", "unit": "mPa·s"}, {"measurement": "viscosity", "setting": "303.15 K, x2 = 0.6106", "value": "1.71 ± 0.02", "unit": "mPa·s"}, {"measurement": "viscosity", "setting": "303.15 K, x2 = 0.7093", "value": "1.73 ± 0.02", "unit": "mPa·s"}, {"measurement": "viscosity", "setting": "303.15 K, x2 = 0.807", "value": "1.75 ± 0.02", "unit": "mPa·s"}, {"measurement": "viscosity", "setting": "303.15 K, x2 = 0.9039", "value": "1.8 ± 0.02", "unit": "mPa·s"}, {"measurement": "viscosity", "setting": "313.15 K, x2 = 0.1044", "value": "1.48 ± 0.02", "unit": "mPa·s"}, {"measurement": "viscosity", "setting": "313.15 K, x2 = 0.2075", "value": "1.46 ± 0.02", "unit": "mPa·s"}, {"measurement": "viscosity", "setting": "313.15 K, x2 = 0.3094", "value": "1.44 ± 0.02", "unit": "mPa·s"}, {"measurement": "viscosity", "setting": "313.15 K, x2 = 0.4109", "value": "1.43 ± 0.02", "unit": "mPa·s"}, {"measurement": "viscosity", "setting": "313.15 K, x2 = 0.5112", "value": "1.44 ± 0.02", "unit": "mPa·s"}, {"measurement": "viscosity", "setting": "313.15 K, x2 = 0.6106", "value": "1.45 ± 0.02", "unit": "mPa·s"}, {"measurement": "viscosity", "setting": "313.15 K, x2 = 0.7093", "value": "1.46 ± 0.02", "unit": "mPa·s"}, {"measurement": "viscosity", "setting": "313.15 K, x2 = 0.807", "value": "1.48 ± 0.02", "unit": "mPa·s"}, {"measurement": "viscosity", "setting": "313.15 K, x2 = 0.9039", "value": "1.51 ± 0.02", "unit": "mPa·s"}, {"measurement": "viscosity", "setting": "323.15 K, x2 = 0.1044", "value": "1.27 ± 0.02", "unit": "mPa·s"}, {"measurement": "viscosity", "setting": "323.15 K, x2 = 0.2075", "value": "1.25 ± 0.02", "unit": "mPa·s"}, {"measurement": "viscosity", "setting": "323.15 K, x2 = 0.3094", "value": "1.24 ± 0.02", "unit": "mPa·s"}, {"measurement": "viscosity", "setting": "323.15 K, x2 = 0.4109", "value": "1.23 ± 0.02", "unit": "mPa·s"}, {"measurement": "viscosity", "setting": "323.15 K, x2 = 0.5112", "value": "1.24 ± 0.02", "unit": "mPa·s"}, {"measurement": "viscosity", "setting": "323.15 K, x2 = 0.6106", "value": "1.25 ± 0.02", "unit": "mPa·s"}, {"measurement": "viscosity", "setting": "323.15 K, x2 = 0.7093", "value": "1.26 ± 0.02", "unit": "mPa·s"}, {"measurement": "viscosity", "setting": "323.15 K, x2 = 0.807", "value": "1.27 ± 0.02", "unit": "mPa·s"}, {"measurement": "viscosity", "setting": "323.15 K, x2 = 0.9039", "value": "1.29 ± 0.02", "unit": "mPa·s"}, {"measurement": "viscosity", "setting": "333.15 K, x2 = 0.1044", "value": "1.1 ± 0.02", "unit": "mPa·s"}, {"measurement": "viscosity", "setting": "333.15 K, x2 = 0.2075", "value": "1.09 ± 0.02", "unit": "mPa·s"}, {"measurement": "viscosity", "setting": "333.15 K, x2 = 0.3094", "value": "1.08 ± 0.02", "unit": "mPa·s"}, {"measurement": "viscosity", "setting": "333.15 K, x2 = 0.4109", "value": "1.07 ± 0.02", "unit": "mPa·s"}, {"measurement": "viscosity", "setting": "333.15 K, x2 = 0.5112", "value": "1.08 ± 0.02", "unit": "mPa·s"}, {"measurement": "viscosity", "setting": "333.15 K, x2 = 0.6106", "value": "1.08 ± 0.02", "unit": "mPa·s"}, {"measurement": "viscosity", "setting": "333.15 K, x2 = 0.7093", "value": "1.09 ± 0.02", "unit": "mPa·s"}, {"measurement": "viscosity", "setting": "333.15 K, x2 = 0.807", "value": "1.1 ± 0.02", "unit": "mPa·s"}, {"measurement": "viscosity", "setting": "333.15 K, x2 = 0.9039", "value": "1.12 ± 0.02", "unit": "mPa·s"}, {"measurement": "viscosity", "setting": "343.15 K, x2 = 0.1044", "value": "0.968 ± 0.021", "unit": "mPa·s"}, {"measurement": "viscosity", "setting": "343.15 K, x2 = 0.2075", "value": "0.957 ± 0.021", "unit": "mPa·s"}, {"measurement": "viscosity", "setting": "343.15 K, x2 = 0.3094", "value": "0.95 ± 0.021", "unit": "mPa·s"}, {"measurement": "viscosity", "setting": "343.15 K, x2 = 0.4109", "value": "0.943 ± 0.021", "unit": "mPa·s"}, {"measurement": "viscosity", "setting": "343.15 K, x2 = 0.5112", "value": "0.947 ± 0.021", "unit": "mPa·s"}, {"measurement": "viscosity", "setting": "343.15 K, x2 = 0.6106", "value": "0.951 ± 0.021", "unit": "mPa·s"}, {"measurement": "viscosity", "setting": "343.15 K, x2 = 0.7093", "value": "0.958 ± 0.021", "unit": "mPa·s"}, {"measurement": "viscosity", "setting": "343.15 K, x2 = 0.807", "value": "0.968 ± 0.022", "unit": "mPa·s"}, {"measurement": "viscosity", "setting": "343.15 K, x2 = 0.9039", "value": "0.982 ± 0.022", "unit": "mPa·s"}, {"measurement": "viscosity", "setting": "353.15 K, x2 = 0.1044", "value": "0.856 ± 0.021", "unit": "mPa·s"}, {"measurement": "viscosity", "setting": "353.15 K, x2 = 0.2075", "value": "0.847 ± 0.021", "unit": "mPa·s"}, {"measurement": "viscosity", "setting": "353.15 K, x2 = 0.3094", "value": "0.842 ± 0.021", "unit": "mPa·s"}, {"measurement": "viscosity", "setting": "353.15 K, x2 = 0.4109", "value": "0.836 ± 0.021", "unit": "mPa·s"}, {"measurement": "viscosity", "setting": "353.15 K, x2 = 0.5112", "value": "0.84 ± 0.021", "unit": "mPa·s"}, {"measurement": "viscosity", "setting": "353.15 K, x2 = 0.6106", "value": "0.843 ± 0.021", "unit": "mPa·s"}, {"measurement": "viscosity", "setting": "353.15 K, x2 = 0.7093", "value": "0.849 ± 0.021", "unit": "mPa·s"}, {"measurement": "viscosity", "setting": "353.15 K, x2 = 0.807", "value": "0.858 ± 0.021", "unit": "mPa·s"}, {"measurement": "viscosity", "setting": "353.15 K, x2 = 0.9039", "value": "0.87 ± 0.021", "unit": "mPa·s"}, {"measurement": "viscosity", "setting": "363.15 K, x2 = 0.1044", "value": "0.765 ± 0.021", "unit": "mPa·s"}, {"measurement": "viscosity", "setting": "363.15 K, x2 = 0.2075", "value": "0.758 ± 0.021", "unit": "mPa·s"}, {"measurement": "viscosity", "setting": "363.15 K, x2 = 0.3094", "value": "0.753 ± 0.021", "unit": "mPa·s"}, {"measurement": "viscosity", "setting": "363.15 K, x2 = 0.4109", "value": "0.749 ± 0.021", "unit": "mPa·s"}, {"measurement": "viscosity", "setting": "363.15 K, x2 = 0.5112", "value": "0.752 ± 0.021", "unit": "mPa·s"}, {"measurement": "viscosity", "setting": "363.15 K, x2 = 0.6106", "value": "0.755 ± 0.021", "unit": "mPa·s"}, {"measurement": "viscosity", "setting": "363.15 K, x2 = 0.7093", "value": "0.76 ± 0.021", "unit": "mPa·s"}, {"measurement": "viscosity", "setting": "363.15 K, x2 = 0.807", "value": "0.768 ± 0.021", "unit": "mPa·s"}, {"measurement": "viscosity", "setting": "363.15 K, x2 = 0.9039", "value": "0.778 ± 0.021", "unit": "mPa·s"}, {"measurement": "viscosity", "setting": "373.15 K, x2 = 0.1044", "value": "0.689 ± 0.021", "unit": "mPa·s"}, {"measurement": "viscosity", "setting": "373.15 K, x2 = 0.2075", "value": "0.683 ± 0.021", "unit": "mPa·s"}, {"measurement": "viscosity", "setting": "373.15 K, x2 = 0.3094", "value": "0.68 ± 0.021", "unit": "mPa·s"}, {"measurement": "viscosity", "setting": "373.15 K, x2 = 0.4109", "value": "0.676 ± 0.021", "unit": "mPa·s"}, {"measurement": "viscosity", "setting": "373.15 K, x2 = 0.5112", "value": "0.679 ± 0.021", "unit": "mPa·s"}, {"measurement": "viscosity", "setting": "373.15 K, x2 = 0.6106", "value": "0.685 ± 0.021", "unit": "mPa·s"}, {"measurement": "viscosity", "setting": "373.15 K, x2 = 0.7093", "value": "0.687 ± 0.021", "unit": "mPa·s"}, {"measurement": "viscosity", "setting": "373.15 K, x2 = 0.807", "value": "0.694 ± 0.021", "unit": "mPa·s"}, {"measurement": "viscosity", "setting": "373.15 K, x2 = 0.9039", "value": "0.703 ± 0.021", "unit": "mPa·s"}]}
